According to patent US20240239763A1, “CRYSTAL FORM OF THIOPHENE DERIVATIVE AND PREPARATION METHOD THEREFOR” (DONGBAO PURPLE STAR (HANGZHOU) BIOPHARMACEUTICAL CO., LTD., priority 2021, published 2024):

Experiments:
[1] = Hepatic metabolic stability (HMS) in human liver cells; format: in vitro ADME; details: hepatocytes (liver cells) in suspension, read-out: Hepatic intrinsic clearance rates
Description: (§1) To test the metabolic stability of the test compound in human and rat liver cells.
(§2) 2.1 Test Compound (10 mM), controls: 7-Ethoxycoumarin (30 mM), 7-Hydroxycoumarin (control, 30 mM)
(§3) 1) A 30 mM solution was prepared by dissolving a precise amount of the positive control compound in dimethyl sulfoxide (DMSO).
(§4) 2) In a 96-well plate, the 10 mM test compound and 30 mM positive control compound were diluted to 1 mM and 3 mM, respectively, using DMSO.
(§5) 3) Acetonitrile was used to further dilute the 1 mM test compound and 3 mM positive control compound to quantification solutions with final concentrations of 100 μM and 300 μM, respectively.
(§6) 4) The stored cells were thawed, separated, and suspended in culture mediums. These cells were then diluted to a concentration of 0.5×10^6 cells/mL using pre-warmed culture mediums.
(§7) 5) In the 96-well plate, 198 μL of the pre-warmed cell suspension was added. […]
(§8) Through the following formula, the residual rates for the test compound and the control compound were calculated.
(§9) The elimination rate constant k for the test compound and control compound in hepatocytes was calculated by plotting the logarithm of the residual rate against time. The half-life (T1/2) and intrinsic clearance rate (CLint) were determined based on the elimination rate constant k. […]

P-gp (human MDR1) = test: MDR1 membrane permeability test (bidirectional); format: in vitro ADME, canine; details: dog, MDR1-MDCK II
Description: MDR1-MDCK II cells are Madin-Darby canine kidney cells transfected with the human MDR1 gene, enabling stable high expression of P-gp. The purpose of the present study is to test the bidirectional permeability of the compound across the MDR1-MDCK II cell model and evaluate its potential for efflux transport.
MDR1-MDCK II cells (sourced from Piet Borst at the Netherlands Cancer Institute) were seeded on polyethylene terephthalate (PET) membranes in a 96-well insert system at a density of 2.5×10^5 cells/mL. The cells were cultured until they formed a confluent monolayer over 4-7 days.
Test compounds were diluted in transport buffer (HBSS containing 10 mM Hepes with DMSO, pH 7.4) to a concentration of 2 μM (DMSO<1%) and were applied to either the apical or basolateral side of the cell monolayer. […] Additionally, efflux ratios for each compound were measured, and both test and reference compounds were quantified, based on the peak area ratio of the analyte to IS by LC/MS/MS analysis. After the transport assay, the integrity of the cell monolayer was determined using a Lucifer Yellow exclusion assay. […] The relative fluorescence units (RFU) of […] were measured at 425/528 nm (excitation/emission) using an Envision microplate reader.
The apparent permeability coefficient (Papp, cm/s), efflux ratio, and recovery rate were calculated using the following formulas: […]

CYP2C19 = CYP2C19 (Homo sapiens (Human), UniProt P33261); test: Cytochrome P450 isoenzyme inhibition, human liver microsomes; format: in vitro ADME; details: read-out: Cytochrome P450 isoenzymes IC50, CYP2C19
Sequence of CYP2C19 (P33261 whole entry): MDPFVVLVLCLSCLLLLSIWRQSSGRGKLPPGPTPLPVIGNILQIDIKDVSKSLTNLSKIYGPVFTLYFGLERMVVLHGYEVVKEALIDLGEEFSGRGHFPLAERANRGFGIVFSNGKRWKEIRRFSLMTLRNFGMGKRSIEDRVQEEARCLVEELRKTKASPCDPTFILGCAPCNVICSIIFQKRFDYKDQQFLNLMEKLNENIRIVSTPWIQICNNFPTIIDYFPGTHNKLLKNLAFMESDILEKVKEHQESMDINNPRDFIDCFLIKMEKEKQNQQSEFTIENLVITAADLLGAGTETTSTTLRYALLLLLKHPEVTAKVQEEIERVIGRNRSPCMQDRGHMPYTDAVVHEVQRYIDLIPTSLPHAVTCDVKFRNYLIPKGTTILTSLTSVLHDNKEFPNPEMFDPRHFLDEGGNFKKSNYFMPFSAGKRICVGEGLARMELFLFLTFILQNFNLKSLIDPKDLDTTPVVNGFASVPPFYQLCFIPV
Description: (§10) To determine the inhibitory activity of the test compound against different subtypes of human cytochrome P450 isoenzymes. Test compounds, standard inhibitors (at 100× final concentration), and mixed substrate working solutions were prepared; the microsomes (purchased from Corning Inc.) stored at −80° C. were taken out and thawed. To the corresponding wells were added 20 μL of the test compound and standard inhibitor solutions. Meanwhile, 20 μL of the respective solvent was added to the No Inhibitor Control (NIC) and blank control wells. Next, 20 μL of mixed substrate solution was added to the corresponding wells, except the blank wells where 20 μL of phosphate buffer (PB) was added. A human liver microsome solution was prepared (immediately returned to the fridge after the date of use was marked). Then, 158 μL of this solution was added to all the wells. The sample plate was placed in a 37° C. water bath for pre-incubation. A co-enzyme factor (NADPH) solution was then promptly prepared. After 10 minutes, 20 μL of NADPH solution was added to all wells. The sample plate was shaken to mix and placed back into a 37° C. water bath for an additional 10 minutes of incubation. At the respective time points, the reaction was terminated by adding 400 μL of cold acetonitrile solution (internal standard at 200 ng/ml of tolbutamide and labetalol). The sample plate was mixed thoroughly and was then centrifuged at 4000 rpm for 20 minutes to precipitate proteins. 200 μL of the supernatant was taken and mixed with 100 μL of water, after which it was sent for LC/MS/MS analysis.

CYP2C9 = CYP2C9 (Homo sapiens (Human), UniProt P11712); test: as above; format: in vitro ADME; details: read-out: Cytochrome P450 isoenzymes IC50, CYP2C9
Sequence of CYP2C9 (P11712 whole entry): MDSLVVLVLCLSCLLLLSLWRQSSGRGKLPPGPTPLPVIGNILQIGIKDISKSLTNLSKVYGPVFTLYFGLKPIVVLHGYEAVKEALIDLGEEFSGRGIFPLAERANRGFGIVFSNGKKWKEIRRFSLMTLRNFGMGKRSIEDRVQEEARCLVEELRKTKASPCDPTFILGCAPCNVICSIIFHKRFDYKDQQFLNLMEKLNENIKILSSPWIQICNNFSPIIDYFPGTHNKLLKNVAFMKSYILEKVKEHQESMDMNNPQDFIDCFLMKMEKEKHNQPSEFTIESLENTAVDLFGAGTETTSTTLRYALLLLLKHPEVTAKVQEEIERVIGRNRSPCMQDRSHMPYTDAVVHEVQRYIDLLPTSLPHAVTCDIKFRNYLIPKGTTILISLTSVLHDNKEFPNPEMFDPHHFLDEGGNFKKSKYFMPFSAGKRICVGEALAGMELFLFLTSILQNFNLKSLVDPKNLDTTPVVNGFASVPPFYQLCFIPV
Description: as §10

CYP3A4-M = CYP3A4-M (Homo sapiens (Human), UniProt P08684); test: as above; format: in vitro ADME; details: read-out: Cytochrome P450 isoenzymes IC50, CYP3A4-M
Sequence of CYP3A4-M (P08684 whole entry): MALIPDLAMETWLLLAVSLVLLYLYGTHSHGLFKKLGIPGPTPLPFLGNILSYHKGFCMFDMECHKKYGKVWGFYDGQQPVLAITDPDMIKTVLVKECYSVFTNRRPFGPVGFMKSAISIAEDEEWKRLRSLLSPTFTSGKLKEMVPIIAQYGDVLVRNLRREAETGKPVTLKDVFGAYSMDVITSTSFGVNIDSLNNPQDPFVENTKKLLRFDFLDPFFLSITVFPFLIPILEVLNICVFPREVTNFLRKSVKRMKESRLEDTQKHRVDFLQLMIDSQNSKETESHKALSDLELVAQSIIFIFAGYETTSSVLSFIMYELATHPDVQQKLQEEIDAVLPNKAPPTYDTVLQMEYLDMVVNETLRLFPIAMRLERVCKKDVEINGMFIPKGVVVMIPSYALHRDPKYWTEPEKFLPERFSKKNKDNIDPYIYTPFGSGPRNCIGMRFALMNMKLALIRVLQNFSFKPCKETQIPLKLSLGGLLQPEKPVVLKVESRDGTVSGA
Description: as §10

CYP2D6 = CYP2D6 (Homo sapiens (Human), UniProt P10635); test: as above; format: in vitro ADME; details: read-out: Cytochrome P450 isoenzymes IC50, CYP2D6
Sequence of CYP2D6 (P10635 whole entry): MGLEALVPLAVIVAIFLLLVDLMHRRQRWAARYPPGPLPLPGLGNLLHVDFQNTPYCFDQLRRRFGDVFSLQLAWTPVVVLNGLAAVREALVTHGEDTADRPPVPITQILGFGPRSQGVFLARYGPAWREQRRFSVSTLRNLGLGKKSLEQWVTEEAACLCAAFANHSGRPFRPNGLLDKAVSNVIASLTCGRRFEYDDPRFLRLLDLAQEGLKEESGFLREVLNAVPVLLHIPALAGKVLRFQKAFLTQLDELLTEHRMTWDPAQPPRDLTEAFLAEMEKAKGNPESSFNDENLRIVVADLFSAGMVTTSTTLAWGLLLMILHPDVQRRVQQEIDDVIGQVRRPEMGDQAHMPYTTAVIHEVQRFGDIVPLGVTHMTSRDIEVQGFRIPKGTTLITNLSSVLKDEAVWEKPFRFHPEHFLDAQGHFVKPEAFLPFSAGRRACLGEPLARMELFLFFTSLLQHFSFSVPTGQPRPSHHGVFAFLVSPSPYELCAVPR
Description: as §10

[2] = Solid-state stability test of crystal form C; format: physicochemical; details: for Content / purity: crystal form C
Description: They were separately placed under stability conditions of high temperature (60° C.), high humidity (25° C./92.5% humidity), combined high temperature and high humidity (40° C./75% humidity), and light exposure. For the sample placed under high temperature and high humidity, the bottle was sealed with aluminum foil, with small holes punctured in the aluminum foil to ensure that the samples could fully contact the ambient air; the sample placed under strong light exposure was sealed with a quartz glass cap. […] The samples placed under combined high temperature and high humidity (40° C./75% humidity) were taken for testing in the 1st, 2nd, and 3rd months (appearance, related substances, and content). The samples placed under light exposure conditions were taken for testing when the total illuminance reached 1.2×10^6 Lux•hr.

[3] = Hepatic metabolic stability (HMS) in rat liver cells; format: in vitro ADME; details: hepatocytes (liver cells) in suspension, read-out: Hepatic intrinsic clearance rates
Description: as §1, §2, §3, §4, §5, §6, §7, §8, §9

[4] = Pharmacokinetics in SD rats in vivo; details: male, Sprague-Dawley, rat, plasma
Description: To test the pharmacokinetics of the compound in SD rats in vivo
Sprague Dawley rats (male, 180-350 g, 6 to 10 weeks of age, Beijing Vital River).
The solution was then filtered through a micropore membrane for later use. […] Six male SD rats were divided into two groups. […] In the second group, animals received a single oral gavage dose of the test compound at 10 mg/kg. […] Whole blood was centrifuged at 3200 g for 10 minutes at 4° C. to obtain plasma. The concentrations of the compound and uric acid (in the oral gavage group only) in the plasma were measured using the LC/MS/MS method. Pharmacokinetic parameters such as peak concentration, time to reach peak concentration, clearance rate, half-life, area under the curve, and bioavailability were calculated using Phoenix WinNonlin software.

[5] = Hygroscopicity study by dynamic vapor sorption (DVS); format: physicochemical; details: 25° C. and 80% RH
Description: Instrument model: Intrinsic dynamic vapor sorption analyzer Test conditions: A sample (10 to 30 mg) is taken and placed in a DVS sample tray for testing.
Detailed parameters for DVS are as follows:
Equilibrium: dm/dt=0.002%/min (minimum: 10 minutes, maximum: 180 minutes)
RH (%) test increment range: 0% to 95% to 0%
DVS Intrinsic dynamic vapor sorption analyzer
in a DVS sample tray for testing.

[6] = 40° C., relative humidity of 75%, open-top, 1M
[7] = 40° C., relative humidity of 75%, open-top, 2M
[8] = 40° C., relative humidity of 75%, open-top, 3M
[9] = High humidity (25° C./relative humidity of 92.5%, open-top), 5 days
[10] = High humidity (25° C./relative humidity of 92.5%, open-top), 10 days
[11] = High humidity (25° C./relative humidity of 92.5%, open-top), 30 days
[12] = High temperature (60° C., open-top), 5 days
[13] = High temperature (60° C., open-top), 10 days
[14] = High temperature (60° C., open-top), 30 days
[15] = Light exposure (total illuminance: 1.2 × 10^6 Lux · hr/near ultraviolet: 200 w · hr/m^2), 5 days
[16] = Light exposure (total illuminance: 1.2 × 10^6 Lux · hr/near ultraviolet: 200 w · hr/m^2), 10 days
[17] = 2.89 mg/kg, 2.89 mpk/intravenous injection

Work on `N#Cc1sc(-c2ccc(C(=O)O)c(O)c2)c2c1CCC(F)(F)C2` [Compound of formula (I)] yielded a CLint scaled at 1 µM [1] of 31.8 mL/min/kg, a Papp A→B at […], 2 µM (P-gp (human MDR1); pH 7.4, A-to-B) of 26.4 ×10⁻⁶ cm/s and a Papp B→A at […], 2 µM (P-gp (human MDR1); pH 7.4, B-to-A) of 6.63 ×10⁻⁶ cm/s. The IC50 (CYP2C19) was > 50 µM, the IC50 (CYP2C9) was 18.1 µM and the IC50 (CYP3A4-M) was > 50 µM. For the same compound, the IC50 (CYP2D6) was > 50 µM, the Content ([2]; 0 days (initial)) was 98.1% and the purity ([2]; 0 days (initial)) was 98.84%. It also gave a Content [2, 6] of 97.8%, a purity [2, 6] of 98.83% and a Content [2, 7] of 97.8%. For the same compound, the purity [2, 7] was 99.02%, the Content [2, 8] was 97.8% and the purity [2, 8] was 98.86%. For the same compound, the Content [2, 9] was 97.9%, the purity [2, 9] was 98.90% and the Content [2, 10] was 97.9%. The purity [2, 10] was 98.90%, the Content [2, 11] was 97.9% and the purity [2, 11] was 98.80%. The Content [2, 12] was 98.5%, the purity [2, 12] was 98.94% and the Content [2, 13] was 98.3%. For the same compound, the purity [2, 13] was 98.95%, the Content [2, 14] was 98.1% and the purity [2, 14] was 98.87%. For the same compound, the Content [2, 15] was 97.6%, the purity [2, 15] was 98.89% and the Content [2, 16] was 98.0%. For the same compound, the purity [2, 16] was 98.91%, the CLint scaled at 1 µM [3] was 188 mL/min/kg and the AUC(0-inf) [4, 17] was 41.8 µM·h. It also gave a C0 [4, 17] of 96.6 µM, a clearance [4, 17] of 3.59 mL/min/kg and a Vd ([4]; 2.89 mg/kg, 2.89 mpk/intravenous injection, read-out: Vdss) of 0.32 L/kg. It also gave an AUC(0-inf) ([4]; 8.58 mg/kg, 8.58 mpk/oral) of 86.6 µM·h, a Cmax ([4]; 8.58 mg/kg, 8.58 mpk/oral) of 27.5 µM and a Tmax ([4]; 8.58 mg/kg, 8.58 mpk/oral) of 0.5 h. It also gave a bioavailability ([4]; 8.58 mg/kg, 8.58 mpk/oral) of 62.1% and a half-life ([4]; 8.58 mg/kg, 8.58 mpk/oral) of 2.47 h.
With `N#Cc1sc(-c2ccc(C(=O)O)c(O)c2)c2c1CCC(F)(F)C2` [crystal form C] the hygroscopicity classification [5] was “no hygroscopicity”, the “ΔW (hygroscopic weight gain)” value [5] was 0.196% and the “solid-state stability (in words)” value ([2]; high temperature, high humidity, strong light exposure, and accelerated conditions) was “good stability”.
